Consider 16 compounds from patent publication US9695330B2, “Liquid composition, pigment dispersion liquid, and aqueous ink composition for ink jet recording” (Seiko Epson Corporation, priority 2015, dated 2017).

One data set can be described thus: Distribution coefficient of water-octanol (logP), OECD Test Guideline 107. The data set is classed as physicochemical.
Settings: not given
For the compound `CCC(=O)OCC(O)CO` (stereo not shown) [propionic acid 2,3-dihydroxypropyl], the “logP (distribution coefficient of water-octanol)” value is given as −0.75.
With `C=C(C)C(=O)OCC(O)CO` (stereo not shown) [methacrylic acid 2,3-dihydroxypropyl], the “logP (distribution coefficient of water-octanol)” value was −0.12.
On to `CCCCC(CC)COCC(O)CO` (stereo not shown) [3-(2-ethylhexyloxy)-1,2-propanediol], for which the lipophilicity (logP) (commonly the decadic logarithm of the partition coefficient of the neutral form, usually between octanol and water) was 2.53.
`CCCCCC(=O)OCC(O)CO` (stereo not shown) [hexanoic acid 2,3-dihydroxypropyl]: the “logP (distribution coefficient of water-octanol)” value came out at 0.85.
With `CCCC(=O)OCC(O)CO` (stereo not shown) [butyric acid 2,3-dihydroxypropyl], the “logP (distribution coefficient of water-octanol)” value is listed as -0.21.

The same data set, now with this note: octanol/water.
`OCC(O)COC1CCCCC1` (stereo not shown) [3-cyclohexyloxy-1,2-propanediol]: the log partition coefficient (logP) was 1.
The same measure, in the same setting: the result for `CCCCOCC(O)CO` (stereo not shown) [3-butoxy-1,2-propanediol] reads 0.59.
`CC(=O)OCC(COC(C)=O)OC(C)=O` [glycerol triacetate] showed a logP of -0.24.
On to `CC1CCC(C(C)C)C(OCC(O)CO)C1` (stereo not shown) [3-menthyloxy-1,2-propanediol], for which the logP amounted to 2.6.
Same read-out and setting: the result for `CCCCCCOCC(O)CO` (stereo not shown) [3-hexyloxy-1,2-propanediol] reads 0.36.
Still for that read-out and setting: the result for `C#CCOCC(O)CO` (stereo not shown) [3-(2-propynyloxy)-1,2-propanediol] reads 0.75.
Consider `CCOCC(O)CO` (stereo not shown) [3-ethoxy-1,2-propanediol], for which the logP was -0.43.
`CC(C)CCOCC(O)CO` (stereo not shown) [3-isopentyloxy-1,2-propanediol] gave a logP of 0.94.
`CCCCCOCC(O)CO` (stereo not shown) [3-pentyloxy-1,2-propanediol] yielded a log partition coefficient (logP) of 0.9.
Consider `C=CCOCC(O)CO` (stereo not shown) [3-allyloxy-1,2-propanediol], for which the lipophilicity (logP) was -0.46.
Consider `COCC(O)CO` (stereo not shown) [3-methoxy-1,2-propanediol], for which the lipophilicity (logP) was -0.62.
